Key:
Test in all cases: KINOMEscan competition binding
Conditions in all cases: compound 10.0 µM
[1] = molecular target: LCK (human) (UniProt P06239)
[2] = molecular target: SLK (human) (UniProt Q9H2G2)
[3] = molecular target: CDK14 (human) (UniProt O94921)
[4] = molecular target: TNNI3K (human) (UniProt Q59H18)
[5] = molecular target: IKBKE (human) (UniProt Q14164)
[6] = molecular target: PRKD1 (human) (UniProt Q15139)
[7] = molecular target: CDK9 (human) (UniProt P50750)
[8] = molecular target: MAP2K2 (human) (UniProt P36507)
[9] = molecular target: NEK5 (human) (UniProt Q6P3R8)
[10] = molecular target: MAPKAPK5 (human) (UniProt Q8IW41)
[11] = molecular target: PDPK1 (human) (UniProt O15530)
[12] = molecular target: NUAK2 (human) (UniProt Q9H093)
[13] = molecular target: TNIK (human) (UniProt Q9UKE5)
[14] = molecular target: CDK5 (human) (UniProt Q00535)
CDK5 (human), sequence (Q00535 whole entry, looked up): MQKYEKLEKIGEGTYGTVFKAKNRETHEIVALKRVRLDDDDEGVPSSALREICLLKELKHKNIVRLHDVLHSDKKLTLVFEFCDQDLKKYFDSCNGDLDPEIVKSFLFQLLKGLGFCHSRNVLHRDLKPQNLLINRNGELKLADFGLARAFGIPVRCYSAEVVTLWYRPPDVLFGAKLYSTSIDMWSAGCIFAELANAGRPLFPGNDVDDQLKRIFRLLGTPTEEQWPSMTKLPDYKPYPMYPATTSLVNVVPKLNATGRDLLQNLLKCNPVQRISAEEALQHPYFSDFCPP

[15] = molecular target: STK25 (human) (UniProt O00506)
[16] = molecular target: EPHA8 (human) (UniProt P29322)
[17] = molecular target: RIPK2 (human) (UniProt O43353)
[18] = molecular target: PDGFRB (human) (UniProt P09619)
[19] = molecular target: PIM2 (human) (UniProt Q9P1W9)
[20] = molecular target: RPS6KA1 KD2 (human) (UniProt Q15418)
[21] = molecular target: EPHA2 (human) (UniProt P29317)
[22] = molecular target: MARK2 (human) (UniProt Q7KZI7)
[23] = molecular target: RIPK1 (human) (UniProt Q13546)
RIPK1 (human), sequence (Q13546 whole entry, looked up): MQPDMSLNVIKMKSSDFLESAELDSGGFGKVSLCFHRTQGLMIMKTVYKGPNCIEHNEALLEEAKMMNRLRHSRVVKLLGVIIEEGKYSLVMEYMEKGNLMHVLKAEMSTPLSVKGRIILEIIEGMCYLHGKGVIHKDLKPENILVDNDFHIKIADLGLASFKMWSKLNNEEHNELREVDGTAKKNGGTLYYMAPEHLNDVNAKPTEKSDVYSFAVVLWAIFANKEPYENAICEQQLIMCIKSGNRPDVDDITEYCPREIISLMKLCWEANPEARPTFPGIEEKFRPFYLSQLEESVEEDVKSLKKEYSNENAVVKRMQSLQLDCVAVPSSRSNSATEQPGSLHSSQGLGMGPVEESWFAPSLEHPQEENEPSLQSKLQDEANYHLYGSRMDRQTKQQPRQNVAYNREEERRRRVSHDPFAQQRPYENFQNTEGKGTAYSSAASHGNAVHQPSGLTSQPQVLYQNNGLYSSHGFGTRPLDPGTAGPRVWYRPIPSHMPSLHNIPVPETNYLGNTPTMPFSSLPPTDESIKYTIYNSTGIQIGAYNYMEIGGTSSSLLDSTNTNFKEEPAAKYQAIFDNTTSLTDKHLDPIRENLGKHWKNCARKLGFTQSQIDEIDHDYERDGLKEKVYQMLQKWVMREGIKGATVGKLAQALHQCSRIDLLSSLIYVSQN

[24] = molecular target: MAP3K3 (human) (UniProt Q99759)
[25] = molecular target: AXL (human) (UniProt P30530)
[26] = molecular target: JAK1 JH1 catalytic (human) (UniProt P23458)
JAK1 JH1 catalytic (human), sequence (P23458 whole entry, looked up): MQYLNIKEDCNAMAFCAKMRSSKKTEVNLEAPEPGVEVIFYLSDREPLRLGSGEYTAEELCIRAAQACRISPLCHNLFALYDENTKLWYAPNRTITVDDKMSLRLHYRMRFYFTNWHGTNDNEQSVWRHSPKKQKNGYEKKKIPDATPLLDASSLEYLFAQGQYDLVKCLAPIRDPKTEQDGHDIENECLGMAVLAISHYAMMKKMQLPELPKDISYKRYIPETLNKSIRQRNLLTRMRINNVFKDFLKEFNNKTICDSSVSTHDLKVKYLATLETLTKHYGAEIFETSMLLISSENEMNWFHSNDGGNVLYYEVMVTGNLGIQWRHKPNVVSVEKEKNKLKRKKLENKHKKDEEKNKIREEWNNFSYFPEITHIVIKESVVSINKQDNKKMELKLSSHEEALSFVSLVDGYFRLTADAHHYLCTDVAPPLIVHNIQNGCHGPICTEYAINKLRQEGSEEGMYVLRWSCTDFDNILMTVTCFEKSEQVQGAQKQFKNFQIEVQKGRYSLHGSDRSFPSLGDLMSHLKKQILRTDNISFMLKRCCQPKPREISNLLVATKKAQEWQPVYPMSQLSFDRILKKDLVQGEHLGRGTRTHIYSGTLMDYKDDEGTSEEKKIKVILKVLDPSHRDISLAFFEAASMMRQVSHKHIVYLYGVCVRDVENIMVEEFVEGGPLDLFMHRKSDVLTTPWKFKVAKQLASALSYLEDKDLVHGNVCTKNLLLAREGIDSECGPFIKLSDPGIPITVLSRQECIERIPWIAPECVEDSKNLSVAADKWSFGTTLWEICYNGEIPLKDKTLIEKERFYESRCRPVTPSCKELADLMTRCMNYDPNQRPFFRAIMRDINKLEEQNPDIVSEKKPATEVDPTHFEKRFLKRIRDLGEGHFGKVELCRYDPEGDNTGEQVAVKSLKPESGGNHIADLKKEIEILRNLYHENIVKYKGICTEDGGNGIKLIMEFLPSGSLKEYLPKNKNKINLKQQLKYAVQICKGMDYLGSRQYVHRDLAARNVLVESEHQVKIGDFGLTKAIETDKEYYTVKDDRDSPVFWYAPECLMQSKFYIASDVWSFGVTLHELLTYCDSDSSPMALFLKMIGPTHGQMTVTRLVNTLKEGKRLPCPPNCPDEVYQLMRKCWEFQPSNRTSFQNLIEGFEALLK

[27] = molecular target: BRSK2 (human) (UniProt Q8IWQ3)
[28] = molecular target: PAK3 (human) (UniProt O75914)
[29] = molecular target: MAP4K5 (human) (UniProt Q9Y4K4)
[30] = molecular target: MAPK3 (human) (UniProt P27361)
[31] = molecular target: CLK2 (human) (UniProt P49760)
[32] = molecular target: SRMS (human) (UniProt Q9H3Y6)
[33] = molecular target: MAPK12 (human) (UniProt P53778)
[34] = molecular target: CSNK1E (human) (UniProt P49674)
CSNK1E (human), sequence (P49674 whole entry, looked up): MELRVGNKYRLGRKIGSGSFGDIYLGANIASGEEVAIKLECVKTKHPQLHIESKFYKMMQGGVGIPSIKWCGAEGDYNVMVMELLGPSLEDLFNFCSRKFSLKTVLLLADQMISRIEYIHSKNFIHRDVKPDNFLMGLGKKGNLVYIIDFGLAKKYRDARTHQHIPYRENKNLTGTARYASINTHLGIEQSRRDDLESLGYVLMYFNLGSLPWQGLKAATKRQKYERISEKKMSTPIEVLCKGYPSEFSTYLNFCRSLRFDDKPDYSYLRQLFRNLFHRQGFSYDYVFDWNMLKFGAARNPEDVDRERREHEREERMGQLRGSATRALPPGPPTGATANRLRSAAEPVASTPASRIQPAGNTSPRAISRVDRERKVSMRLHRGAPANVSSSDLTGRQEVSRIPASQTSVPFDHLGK

[35] = molecular target: PLK4 (human) (UniProt O00444)
PLK4 (human), sequence (O00444 whole entry, looked up): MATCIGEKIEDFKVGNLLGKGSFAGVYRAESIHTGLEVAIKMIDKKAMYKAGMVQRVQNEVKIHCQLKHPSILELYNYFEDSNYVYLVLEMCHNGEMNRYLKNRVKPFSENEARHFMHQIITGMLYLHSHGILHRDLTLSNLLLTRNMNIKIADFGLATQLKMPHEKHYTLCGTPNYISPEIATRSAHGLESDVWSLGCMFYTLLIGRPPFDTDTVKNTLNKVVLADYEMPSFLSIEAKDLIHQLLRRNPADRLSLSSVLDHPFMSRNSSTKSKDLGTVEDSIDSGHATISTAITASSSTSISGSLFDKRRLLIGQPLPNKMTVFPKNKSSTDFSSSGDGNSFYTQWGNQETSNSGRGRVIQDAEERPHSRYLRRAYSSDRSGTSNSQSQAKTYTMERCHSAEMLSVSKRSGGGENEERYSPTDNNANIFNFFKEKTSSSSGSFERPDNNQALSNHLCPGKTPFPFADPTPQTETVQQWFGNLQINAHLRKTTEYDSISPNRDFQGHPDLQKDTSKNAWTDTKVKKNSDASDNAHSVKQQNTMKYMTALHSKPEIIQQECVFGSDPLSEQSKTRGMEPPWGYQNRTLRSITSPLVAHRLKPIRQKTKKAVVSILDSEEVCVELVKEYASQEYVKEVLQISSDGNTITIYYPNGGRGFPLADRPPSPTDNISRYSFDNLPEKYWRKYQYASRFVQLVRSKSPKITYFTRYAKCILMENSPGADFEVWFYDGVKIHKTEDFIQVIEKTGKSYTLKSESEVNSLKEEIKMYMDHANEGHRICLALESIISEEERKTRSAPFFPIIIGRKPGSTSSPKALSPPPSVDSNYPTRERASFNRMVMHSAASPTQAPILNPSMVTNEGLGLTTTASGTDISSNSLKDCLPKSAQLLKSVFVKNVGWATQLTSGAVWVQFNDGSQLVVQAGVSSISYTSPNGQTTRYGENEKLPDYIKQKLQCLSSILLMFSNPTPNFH

[36] = molecular target: LYN (human) (UniProt P07948)
[37] = molecular target: TEK (human) (UniProt Q02763)
[38] = molecular target: MYO3A (human) (UniProt Q8NEV4)
[39] = molecular target: RPS6KA2 KD2 (human) (UniProt Q15349)
RPS6KA2 KD2 (human), sequence (Q15349 whole entry, looked up): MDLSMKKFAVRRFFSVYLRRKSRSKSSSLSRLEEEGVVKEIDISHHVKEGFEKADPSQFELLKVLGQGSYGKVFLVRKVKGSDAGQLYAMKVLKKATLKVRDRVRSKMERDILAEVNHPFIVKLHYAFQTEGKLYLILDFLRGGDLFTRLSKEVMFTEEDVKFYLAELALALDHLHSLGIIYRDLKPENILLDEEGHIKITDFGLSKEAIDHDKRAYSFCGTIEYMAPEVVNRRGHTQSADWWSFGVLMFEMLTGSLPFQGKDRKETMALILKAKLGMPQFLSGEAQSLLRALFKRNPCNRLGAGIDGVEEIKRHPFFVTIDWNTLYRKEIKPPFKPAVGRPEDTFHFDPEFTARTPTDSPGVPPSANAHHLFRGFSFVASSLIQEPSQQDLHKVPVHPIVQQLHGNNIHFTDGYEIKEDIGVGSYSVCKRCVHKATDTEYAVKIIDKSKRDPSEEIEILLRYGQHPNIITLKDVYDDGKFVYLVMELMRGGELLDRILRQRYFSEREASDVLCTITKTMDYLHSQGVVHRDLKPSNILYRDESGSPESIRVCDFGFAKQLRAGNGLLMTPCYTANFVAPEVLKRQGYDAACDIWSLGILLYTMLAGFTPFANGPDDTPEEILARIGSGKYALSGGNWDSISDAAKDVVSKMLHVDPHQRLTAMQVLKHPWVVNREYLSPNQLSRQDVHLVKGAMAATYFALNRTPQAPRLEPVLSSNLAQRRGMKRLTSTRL

[40] = molecular target: IKBKB (human) (UniProt O14920)

TNNI3K (human), sequence (Q59H18 whole entry, looked up): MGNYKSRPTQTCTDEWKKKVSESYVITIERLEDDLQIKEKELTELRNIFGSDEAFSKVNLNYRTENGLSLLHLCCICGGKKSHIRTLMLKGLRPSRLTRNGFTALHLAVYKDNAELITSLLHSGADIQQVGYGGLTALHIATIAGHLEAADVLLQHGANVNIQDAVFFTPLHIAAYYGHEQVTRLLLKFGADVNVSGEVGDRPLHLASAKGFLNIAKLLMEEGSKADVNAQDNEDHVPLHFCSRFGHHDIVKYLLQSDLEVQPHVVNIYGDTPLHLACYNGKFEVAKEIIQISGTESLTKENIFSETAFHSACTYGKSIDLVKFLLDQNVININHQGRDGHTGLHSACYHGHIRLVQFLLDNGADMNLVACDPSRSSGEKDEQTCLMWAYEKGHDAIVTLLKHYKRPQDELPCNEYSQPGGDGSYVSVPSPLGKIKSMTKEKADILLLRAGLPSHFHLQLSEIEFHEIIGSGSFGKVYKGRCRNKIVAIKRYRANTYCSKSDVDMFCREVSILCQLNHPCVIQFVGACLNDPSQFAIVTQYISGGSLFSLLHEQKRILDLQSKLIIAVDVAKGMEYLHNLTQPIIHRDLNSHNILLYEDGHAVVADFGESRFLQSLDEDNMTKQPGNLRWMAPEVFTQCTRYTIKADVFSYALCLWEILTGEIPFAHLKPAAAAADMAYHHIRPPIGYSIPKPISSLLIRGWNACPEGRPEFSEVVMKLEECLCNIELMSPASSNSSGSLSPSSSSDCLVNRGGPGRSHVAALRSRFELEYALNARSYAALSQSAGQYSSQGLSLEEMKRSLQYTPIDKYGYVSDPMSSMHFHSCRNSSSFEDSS

Compound | kinase still bound, per cent of control [1] [%] | kinase still bound, per cent of control [2] [%] | kinase still bound, per cent of control [3] [%] | kinase still bound, per cent of control [4] [%] | kinase still bound, per cent of control [5] [%] | kinase still bound, per cent of control [6] [%] | kinase still bound, per cent of control [7] [%] | kinase still bound, per cent of control [8] [%] | kinase still bound, per cent of control [9] [%] | kinase still bound, per cent of control [10] [%] | kinase still bound, per cent of control [11] [%] | kinase still bound, per cent of control [12] [%] | kinase still bound, per cent of control [13] [%] | kinase still bound, per cent of control [14] [%] | kinase still bound, per cent of control [15] [%] | kinase still bound, per cent of control [16] [%] | kinase still bound, per cent of control [17] [%] | kinase still bound, per cent of control [18] [%] | kinase still bound, per cent of control [19] [%] | kinase still bound, per cent of control [20] [%] | also measured
Cc1ccc(NC(=O)c2cccc(C(C)(C)C#N)c2)cc1Nc1ccc2ncn(C)c(=O)c2c1 | 0.7 | 68 | 100 | 15 | 100 | 67 | 100 | 100 | 33 | 100 | 100 | 100 | 3.4 | 100 | 100 | 2.1 | 7 | 0 | 100 | 87 | kinase still bound, per cent of control [21]: 3.2%; kinase still bound, per cent of control [22]: 92%; kinase still bound, per cent of control [23]: 83%; kinase still bound, per cent of control [24]: 100%; kinase still bound, per cent of control [25]: 75%; kinase still bound, per cent of control [26]: 100%; kinase still bound, per cent of control [27]: 100%; kinase still bound, per cent of control [28]: 81%; kinase still bound, per cent of control [29]: 59%; kinase still bound, per cent of control [30]: 100%; kinase still bound, per cent of control [31]: 100%; kinase still bound, per cent of control [32]: 7.4%; kinase still bound, per cent of control [33]: 45%; kinase still bound, per cent of control [34]: 100%; kinase still bound, per cent of control [35]: 87%; kinase still bound, per cent of control [36]: 0.3%; kinase still bound, per cent of control [37]: 62%; kinase still bound, per cent of control [38]: 100%; kinase still bound, per cent of control [39]: 84%; kinase still bound, per cent of control [40]: 94%
C[C@@H](Oc1cc(-n2cnc3ccc(CN4CCN(C)CC4)cc32)sc1C(N)=O)c1ccccc1C(F)(F)F | 70 | 0.25 | 94 | 92 | 58 | 20 | 93 | 79 | 25 | 89 | 100 | 1.2 | 78 | 100 | 83 | 90 | 92 | 9.8 | 77 | 71 | kinase still bound, per cent of control [21]: 92%; kinase still bound, per cent of control [22]: 53%; kinase still bound, per cent of control [23]: 100%; kinase still bound, per cent of control [24]: 88%; kinase still bound, per cent of control [25]: 41%; kinase still bound, per cent of control [26]: 100%; kinase still bound, per cent of control [27]: 52%; kinase still bound, per cent of control [28]: 96%; kinase still bound, per cent of control [29]: 68%; kinase still bound, per cent of control [30]: 100%; kinase still bound, per cent of control [31]: 69%; kinase still bound, per cent of control [32]: 74%; kinase still bound, per cent of control [33]: 95%; kinase still bound, per cent of control [34]: 100%; kinase still bound, per cent of control [35]: 97%; kinase still bound, per cent of control [36]: 99%; kinase still bound, per cent of control [37]: 78%; kinase still bound, per cent of control [38]: 78%; kinase still bound, per cent of control [39]: 74%; kinase still bound, per cent of control [40]: 74%
CCOc1cc2ncc(C#N)c(Nc3ccc(OCc4ccccn4)c(Cl)c3)c2cc1NC(=O)/C=C/CN(C)C | 3.7 | 1.4 | 97 | 100 | 100 | 74 | 94 | 0.5 | 100 | 89 | 88 | 8.8 | 6 | 100 | 13 | 78 | 98 | 69 | 100 | 85 | kinase still bound, per cent of control [21]: 94%; kinase still bound, per cent of control [22]: 86%; kinase still bound, per cent of control [23]: 100%; kinase still bound, per cent of control [24]: 3.8%; kinase still bound, per cent of control [25]: 5.4%; kinase still bound, per cent of control [26]: 83%; kinase still bound, per cent of control [27]: 100%; kinase still bound, per cent of control [28]: 100%; kinase still bound, per cent of control [29]: 0.85%; kinase still bound, per cent of control [30]: 100%; kinase still bound, per cent of control [31]: 100%; kinase still bound, per cent of control [32]: 91%; kinase still bound, per cent of control [33]: 100%; kinase still bound, per cent of control [34]: 26%; kinase still bound, per cent of control [35]: 82%; kinase still bound, per cent of control [36]: 34%; kinase still bound, per cent of control [37]: 56%; kinase still bound, per cent of control [38]: 98%; kinase still bound, per cent of control [39]: 100%; kinase still bound, per cent of control [40]: 100%

Source: the kinase profiling compilation of Christmann-Franck et al. (2016)
